Test results: ChEMBL document CHEMBL3867422, “Design and synthesis of pyrimidinyl acyl thioureas as novel Hsp90 inhibitors in invasive ductal breast cancer and its bone metastasis” (Eur J Med Chem, 2016)

Each compound was assayed against Heat shock protein HSP 90-alpha (Homo sapiens) (UniProt P07900) (assay: Inhibition of human His-tagged Hsp90 alpha N-terminal domain ATPase activity expressed in Escherichia coli BL21(DE3) at 6.25 uM assessed as ADP formation by pyruvate kinase/lactate dehydrogenase-coupled assay).

Point of comparison: `CCn1cc(C(=O)NC(=S)Nc2ccccc2C)c(-c2ccccc2)nc1=O`, Activity 85.7 nmol/min/mg. Against it:
- CCn1cc(C(=O)NC(=S)Nc2ccccc2)c(-c2ccccc2)nc1=O — lower, 70.3 nmol/min/mg
- CCn1cc(C(=O)NC(=S)Nc2ccc(Cl)cc2)c(-c2ccccc2)nc1=O — lower, 83.5 nmol/min/mg
- CCn1cc(C(=O)NC(=S)Nc2ccc(Br)cc2)c(-c2ccccc2)nc1=O — lower, 63.6 nmol/min/mg
- CCn1cc(C(=O)NC(=S)Nc2ccc(C(N)=O)cc2)c(-c2ccccc2)nc1=O — higher, 87.1 nmol/min/mg
- CCn1cc(C(=O)NC(=S)Nc2ccc(OC)cc2)c(-c2ccccc2)nc1=O — lower, 59.4 nmol/min/mg
- CCn1cc(C(=O)NC(=S)Nc2ccc(C)cc2)c(-c2ccccc2)nc1=O — lower, 80.5 nmol/min/mg
- CCn1cc(C(=O)NC(=S)Nc2cccc3ccccc23)c(-c2ccccc2)nc1=O — lower, 49.5 nmol/min/mg
- CCn1cc(C(=O)NC(=S)Nc2ccc(F)cc2)c(-c2ccccc2)nc1=O — lower, 84.1 nmol/min/mg
- CCn1cc(C(=O)NC(=S)NCc2ccccc2)c(-c2ccccc2)nc1=O — lower, 80 nmol/min/mg

Each compound was assayed against Heat shock protein HSP 90-alpha (Homo sapiens) (UniProt P07900) (assay: Inhibition of human His-tagged Hsp90 alpha N-terminal domain ATPase activity expressed in Escherichia coli BL21(DE3) at 3.125 uM assessed as ADP formation by pyruvate kinase/lactate dehydrogenase-coupled assay).

Point of comparison: `CCn1cc(C(=O)NC(=S)Nc2ccccc2C)c(-c2ccccc2)nc1=O`, Activity 93.5 nmol/min/mg. Against it:
- CCn1cc(C(=O)NC(=S)Nc2ccccc2)c(-c2ccccc2)nc1=O — lower, 85.3 nmol/min/mg
- CCn1cc(C(=O)NC(=S)Nc2ccc(Cl)cc2)c(-c2ccccc2)nc1=O — lower, 88.8 nmol/min/mg
- CCn1cc(C(=O)NC(=S)Nc2ccc(Br)cc2)c(-c2ccccc2)nc1=O — lower, 80.1 nmol/min/mg
- CCn1cc(C(=O)NC(=S)Nc2ccc(C(N)=O)cc2)c(-c2ccccc2)nc1=O — the same, 93.5 nmol/min/mg
- CCn1cc(C(=O)NC(=S)Nc2ccc(OC)cc2)c(-c2ccccc2)nc1=O — lower, 81.1 nmol/min/mg
- CCn1cc(C(=O)NC(=S)Nc2ccc(C)cc2)c(-c2ccccc2)nc1=O — lower, 90.2 nmol/min/mg
- CCn1cc(C(=O)NC(=S)Nc2cccc3ccccc23)c(-c2ccccc2)nc1=O — lower, 75.5 nmol/min/mg
- CCn1cc(C(=O)NC(=S)Nc2ccc(F)cc2)c(-c2ccccc2)nc1=O — lower, 92.6 nmol/min/mg
- CCn1cc(C(=O)NC(=S)NCc2ccccc2)c(-c2ccccc2)nc1=O — lower, 90.2 nmol/min/mg

The compounds below were run against Heat shock protein HSP 90-alpha (Homo sapiens) (UniProt P07900) (assay: Inhibition of human His-tagged Hsp90 alpha N-terminal domain ATPase activity expressed in Escherichia coli BL21(DE3) at 100 uM assessed as ADP formation by pyruvate kinase/lactate dehydrogenase-coupled assay).

Point of comparison: `CCn1cc(C(=O)NC(=S)Nc2ccc(Br)cc2)c(-c2ccccc2)nc1=O`, Activity 13.5 nmol/min/mg. Against it:
- CCn1cc(C(=O)NC(=S)Nc2ccccc2)c(-c2ccccc2)nc1=O — higher, 26.1 nmol/min/mg
- CCn1cc(C(=O)NC(=S)Nc2ccc(Cl)cc2)c(-c2ccccc2)nc1=O — higher, 49.8 nmol/min/mg
- CCn1cc(C(=O)NC(=S)Nc2ccc(C(N)=O)cc2)c(-c2ccccc2)nc1=O — higher, 37.5 nmol/min/mg
- CCn1cc(C(=O)NC(=S)Nc2ccc(OC)cc2)c(-c2ccccc2)nc1=O — lower, 11.4 nmol/min/mg
- CCn1cc(C(=O)NC(=S)Nc2ccc(C)cc2)c(-c2ccccc2)nc1=O — higher, 33.1 nmol/min/mg
- CCn1cc(C(=O)NC(=S)Nc2cccc3ccccc23)c(-c2ccccc2)nc1=O — lower, 8.19 nmol/min/mg
- CCn1cc(C(=O)NC(=S)Nc2ccccc2C)c(-c2ccccc2)nc1=O — higher, 28.9 nmol/min/mg
- CCn1cc(C(=O)NC(=S)Nc2ccc(F)cc2)c(-c2ccccc2)nc1=O — higher, 27.6 nmol/min/mg
- CCn1cc(C(=O)NC(=S)NCc2ccccc2)c(-c2ccccc2)nc1=O — higher, 35.9 nmol/min/mg

Each compound was assayed against Heat shock protein HSP 90-alpha (Homo sapiens) (UniProt P07900) (assay: Inhibition of human His-tagged Hsp90 alpha N-terminal domain ATPase activity expressed in Escherichia coli BL21(DE3) at 25 uM assessed as ADP formation by pyruvate kinase/lactate dehydrogenase-coupled assay).

Point of comparison: `CCn1cc(C(=O)NC(=S)Nc2ccc(F)cc2)c(-c2ccccc2)nc1=O`, Activity 53.1 nmol/min/mg. Against it:
- CCn1cc(C(=O)NC(=S)Nc2ccccc2)c(-c2ccccc2)nc1=O — lower, 40.4 nmol/min/mg
- CCn1cc(C(=O)NC(=S)Nc2ccc(Cl)cc2)c(-c2ccccc2)nc1=O — higher, 70.4 nmol/min/mg
- CCn1cc(C(=O)NC(=S)Nc2ccc(Br)cc2)c(-c2ccccc2)nc1=O — lower, 26.6 nmol/min/mg
- CCn1cc(C(=O)NC(=S)Nc2ccc(C(N)=O)cc2)c(-c2ccccc2)nc1=O — higher, 64 nmol/min/mg
- CCn1cc(C(=O)NC(=S)Nc2ccc(OC)cc2)c(-c2ccccc2)nc1=O — lower, 28.5 nmol/min/mg
- CCn1cc(C(=O)NC(=S)Nc2ccc(C)cc2)c(-c2ccccc2)nc1=O — higher, 55 nmol/min/mg
- CCn1cc(C(=O)NC(=S)Nc2cccc3ccccc23)c(-c2ccccc2)nc1=O — lower, 24.4 nmol/min/mg
- CCn1cc(C(=O)NC(=S)Nc2ccccc2C)c(-c2ccccc2)nc1=O — lower, 50.1 nmol/min/mg
- CCn1cc(C(=O)NC(=S)NCc2ccccc2)c(-c2ccccc2)nc1=O — higher, 61.2 nmol/min/mg

What follows are compounds tested against Heat shock protein HSP 90-alpha (Homo sapiens) (UniProt P07900) (assay: Inhibition of human His-tagged Hsp90 alpha N-terminal domain ATPase activity expressed in Escherichia coli BL21(DE3) at 12.5 uM assessed as ADP formation by pyruvate kinase/lactate dehydrogenase-coupled assay).

Point of comparison: `CCn1cc(C(=O)NC(=S)Nc2ccc(Br)cc2)c(-c2ccccc2)nc1=O`, Activity 39.7 nmol/min/mg. Against it:
- CCn1cc(C(=O)NC(=S)Nc2ccccc2)c(-c2ccccc2)nc1=O — higher, 60.8 nmol/min/mg
- CCn1cc(C(=O)NC(=S)Nc2ccc(Cl)cc2)c(-c2ccccc2)nc1=O — higher, 74.1 nmol/min/mg
- CCn1cc(C(=O)NC(=S)Nc2ccc(C(N)=O)cc2)c(-c2ccccc2)nc1=O — higher, 73.4 nmol/min/mg
- CCn1cc(C(=O)NC(=S)Nc2ccc(OC)cc2)c(-c2ccccc2)nc1=O — lower, 37.7 nmol/min/mg
- CCn1cc(C(=O)NC(=S)Nc2ccc(C)cc2)c(-c2ccccc2)nc1=O — higher, 72.9 nmol/min/mg
- CCn1cc(C(=O)NC(=S)Nc2cccc3ccccc23)c(-c2ccccc2)nc1=O — lower, 36.1 nmol/min/mg
- CCn1cc(C(=O)NC(=S)Nc2ccccc2C)c(-c2ccccc2)nc1=O — higher, 70.9 nmol/min/mg
- CCn1cc(C(=O)NC(=S)Nc2ccc(F)cc2)c(-c2ccccc2)nc1=O — higher, 72 nmol/min/mg
- CCn1cc(C(=O)NC(=S)NCc2ccccc2)c(-c2ccccc2)nc1=O — higher, 75.1 nmol/min/mg

Each compound was assayed against Heat shock protein HSP 90-alpha (Homo sapiens) (UniProt P07900) (assay: Inhibition of human His-tagged Hsp90 alpha N-terminal domain ATPase activity expressed in Escherichia coli BL21(DE3) at 50 uM assessed as ADP formation by pyruvate kinase/lactate dehydrogenase-coupled assay).

Point of comparison: `CCn1cc(C(=O)NC(=S)Nc2ccc(C(N)=O)cc2)c(-c2ccccc2)nc1=O`, Activity 51.1 nmol/min/mg. Against it:
- CCn1cc(C(=O)NC(=S)Nc2ccccc2)c(-c2ccccc2)nc1=O — lower, 32 nmol/min/mg
- CCn1cc(C(=O)NC(=S)Nc2ccc(Cl)cc2)c(-c2ccccc2)nc1=O — higher, 61 nmol/min/mg
- CCn1cc(C(=O)NC(=S)Nc2ccc(Br)cc2)c(-c2ccccc2)nc1=O — lower, 16.4 nmol/min/mg
- CCn1cc(C(=O)NC(=S)Nc2ccc(OC)cc2)c(-c2ccccc2)nc1=O — lower, 16.2 nmol/min/mg
- CCn1cc(C(=O)NC(=S)Nc2ccc(C)cc2)c(-c2ccccc2)nc1=O — lower, 43.4 nmol/min/mg
- CCn1cc(C(=O)NC(=S)Nc2cccc3ccccc23)c(-c2ccccc2)nc1=O — lower, 13.2 nmol/min/mg
- CCn1cc(C(=O)NC(=S)Nc2ccccc2C)c(-c2ccccc2)nc1=O — lower, 38 nmol/min/mg
- CCn1cc(C(=O)NC(=S)Nc2ccc(F)cc2)c(-c2ccccc2)nc1=O — lower, 38.2 nmol/min/mg
- CCn1cc(C(=O)NC(=S)NCc2ccccc2)c(-c2ccccc2)nc1=O — lower, 50.2 nmol/min/mg
